The text below walks through data of paper PMC4343023, “Selectivity of odorant-binding proteins from the southern house mosquito tested against physiologically relevant ligands” (Frontiers in Physiology, 2015).

Read-outs that look alike come from different tables or passages of the source. Bounds are passed on as bounds.

Test [1] deals with T1, CquiOBP1 (Culex quinquefasciatus, UniProt Q8T6I2). Briefly: pH-dependent binding assay. The following applies: CquiOBP1-NPN quenching by ligand, pH 4.5 to 8, 4PL fit. How it is done:
To investigate the effects of pH on CquiOBP1–ligand complexes, fluorescence binding assay was measured between CquiOBP1 and three best ligands at different pH values. Buffer were prepared into two different ways: starting from 1M phosphate buffer, pH 4, pH was increased and adjusted by adding sodium hydroxide. Then protein was added to make a solution at each tested pH from 4.5 to 8. Experiments were repeated starting from pH 8 and lowering the pH by adding hydrochloric acid. Each tested solution had 200 mM buffer and 10 μg/ml (microgram) of CquiOBP1. As there were no significant differences in fluorescence data generated at a certain pH regardless of having the pH raised by adding NaOH or lowered by addition of HCl, data were pooled for subsequent analysis.
The pH of the midpoint transitions was obtained by non-linear fitting, sigmoidal with an equation for four-parameter logistic (4PL) of curve segments between the lowest and highest decrease in fluorescence (the rising part of each curve). The pH values calculated for the midpoint transitions with MOP, picaridin, and nonanal were 6.3, 5.8, and 5.5, respectively. Although the pH at the surface of dendritic membrane is not known, it is predicted that too low midpoint transition may lead to odorants being trapped in OBPs and not being properly delivered. In short, the acidity at the surface of the membrane may not be enough to trigger release of a ligand with too low midpoint transition pH. By considering only the dissociation constants obtained by in vitro binding assays (Table 1), one could reasonably argue that CquiOBP1 is involved in reception of nonanal. […] Next, we compared how these ligands would interact with CquiOBP1.

The target of a further test is CquiOBP2 (Culex quinquefasciatus, UniProt C7BDZ6). Put plainly: biochemical. Format: binding. The following applies: for Int (fluorescence emission): residual NPN fluorescence, normalized to 100 prior to ligand, screen at 2–20 μM ligand. How it is done:
(§1) Binding affinity (Ban et al., [2002]) was tested with a panel of 34 compounds, including attractants, a mosquito oviposition pheromone, repellents, terpenoids and other putative mosquito attractants or repellents. Unless otherwise specified, they were purchased from Sigma-Aldrich/Fluka/Acros (St. Louis, MO). Repellents: DEET (N,N-diethyl-3-methylbenzamide), PMD (p-mentan-3,8-diol) (Bedoukian Research, Inc.), picaridin (butan-2-yl 2-(2-hydroxyethyl)piperidine-1-carboxylate), IR3535 (ethyl 3-[acetyl(butyl)amino]propanoate) (gifts from Dr. Kamal Chauhan, USDA, ARS, Beltsville), (±)-citronellal, and ethyl 2-phenylacetate. Oviposition attractants: (5R,6S)-6-acetoxy-5-hexadecanolide, MOP (Bedoukian Research, Inc.), skatole, indole, 4-methylphenol, and 4-ethylphenol. Human derived compounds: nonanal, 6-methyl-5-hepten-2-one (sulcatone). Terpenoids and other putative attractants/repellents: linalool, linalool oxide, eucalyptol, camphor, fenchone, thujone, geranyl acetate, eugenol, (Z)-3-hexenyl acetate, 1-octen-3-ol, 1-octyn-3-ol, 3-octanol, 1-hexanol, methylcyclohexanol, methyl salicylate, cyclohexanone, acetophenone, benzaldehyde, 3,5-dimethoxybenzene, 1,2-dimethoxybenzene, and 2-phenylethanol.
(§2) Fluorescence spectra were recorded in a right angle configuration on a spectrofluorimeter (RF-5301, Shimadzu, Kyoto, Japan) at room temperature using a 1 cm light path fluorimeter quartz cuvette. Slit widths of 10 nm were selected for both excitation and emission. N-phenyl-1-naphthylamine (NPN, or 1-NPN) (Ban et al., [2002]) was dissolved in methanol to yield a 1 mM stock solution. The binding affinity for NPN was determined by adding aliquots of NPN into a 10 μg/ml (microgram) protein sample. NPN was excited at 337 nm and emission spectra were recorded at high speed scanning between 350 and 500 nm. All ligands used in competition experiments were dissolved in spectrophotometric grade methanol. Binding data were collected in three independent measurements. Bound ligand was evaluated from fluorescence intensity assuming that the protein was 100% active, with a stoichiometry of 1:1 (protein: ligand) at saturation. The KNPN values were estimated using Prism 5 (GraphPad Software, Inc., La Jolla, CA) by non-linear regression for a unique site of binding. The curves were linearized using Scatchard plots. Dissociation constants of the competitors were calculated according to Campanacci et al. ([2001]) from the corresponding IC50 values in the equation: Kdiss = [IC50]/1+[NPN]/KNPN, where [NPN] is the free concentration of NPN and KNPN is the dissociation constant of the complex protein/NPN.

The target of the next test is CquiOBP5 (Culex quinquefasciatus, UniProt C7BDZ9). Put plainly: biochemical. Format: binding. As to conditions: for Int (fluorescence emission): residual NPN fluorescence, normalized to 100 prior to ligand, screen at 2–20 μM ligand. How it is done:
as §1, §2

Test [2] addresses T1, CquiOBP1. Briefly: biochemical. Format: binding. As to conditions: for Int (fluorescence emission): residual NPN fluorescence, normalized to 100 prior to ligand, screen at 2–20 μM ligand. How it is done:
as §1, §2

A further test concerns AaegOBP1. Set-up: method as in Leal and Leal, 2015. As to conditions: ref Leal and Leal, 2015; cited from earlier work.
For test [3], the system named is Mosquitoes with reduced transcripts of CquiOBP1. Set-up: method as in Pelletier et al., 2010. As to conditions: ref Pelletier et al., 2010; cited from earlier work.
Another test deals with AgamOBP1. Set-up: method as in Biessmann et al., 2010. The following applies: ref Biessmann et al., 2010; cited from earlier work.
In a further test the test system is AfunOBP1. Set-up: method as in Xu et al., 2010. The following applies: panel of EAG-active compounds; ref Xu et al., 2010; cited from earlier work.
Where [4] appears, read: CquiOBP2, NPN displacement titration, read-out: IC50.
Where [5] appears, read: CquiOBP2, calculated from IC50 of NPN displacement, read-out: Kd.
Setting [6] is: CquiOBP5, NPN displacement titration, read-out: IC50.
Setting [7] is: CquiOBP5, calculated from IC50 of NPN displacement, read-out: Kd.
Setting [8] is: CquiOBP1, NPN displacement titration, read-out: IC50.
The mark [9] stands for this setting: CquiOBP1, calculated from IC50 of NPN displacement, read-out: Kd.

Sequence of CquiOBP5 (C7BDZ9 entry or part of it): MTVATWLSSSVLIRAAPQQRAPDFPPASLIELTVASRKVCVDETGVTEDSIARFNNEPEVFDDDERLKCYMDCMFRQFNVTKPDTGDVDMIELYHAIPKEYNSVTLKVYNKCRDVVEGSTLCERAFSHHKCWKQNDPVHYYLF
T1 sequence (Q8T6I2 entry or part of it): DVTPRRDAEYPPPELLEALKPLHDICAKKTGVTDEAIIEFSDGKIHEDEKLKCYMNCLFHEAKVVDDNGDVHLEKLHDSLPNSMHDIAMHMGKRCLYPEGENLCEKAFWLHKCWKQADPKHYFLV
Sequence of CquiOBP2 (C7BDZ6 entry or part of it): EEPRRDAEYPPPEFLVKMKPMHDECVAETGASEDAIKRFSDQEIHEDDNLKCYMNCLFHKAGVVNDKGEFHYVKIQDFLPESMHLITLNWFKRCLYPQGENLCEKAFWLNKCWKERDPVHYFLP

Usually IC50 stands for the midpoint of a concentration-inhibition curve. Broadly, the Kd is the constant that tells how readily two partners part at equilibrium. In the case of `CCC(C)OC(=O)N1CCCCC1CCO` (centres unmarked) [Picaridin, butan-2-yl 2-(2-hydroxyethyl)piperidine-1-carboxylate], at CquiOBP1 [1], the “pH of the midpoint transition” value is on record as 5.8. The IC50 on CquiOBP2 is more than 10 µM; at CquiOBP5, 7.9 µM; on CquiOBP1 [2], 10.2 µM. For the same molecule, the Kd on CquiOBP2 is more than 2.5 µM; at CquiOBP5, 5.6 µM; on CquiOBP1 [2], 6.4 µM. Moreover, the “Int (fluorescence emission)” value came to 77 on CquiOBP2 (CquiOBP2), 45 at CquiOBP5 (CquiOBP5) and 51 at CquiOBP1 [2] (CquiOBP1).
As for `CCCCCCCCCC[C@H](OC(C)=O)[C@H]1CCCC(=O)O1` [MOP, (5R,6S)-6-acetoxy-5-hexadecanolide], the “pH of the midpoint transition” value at CquiOBP1 [1] came out at 6.3. Besides, the “binding to AaegOBP1” value in the test on AaegOBP1 is recorded as “bound”. For the same molecule, the IC50 on CquiOBP2 (setting [4]) was more than 10 µM; on CquiOBP5 (setting [6]), 10.3 µM; on CquiOBP1 [2] (setting [8]) it was 8.4 µM. Moreover, the Kd at CquiOBP2 (setting [5]) was more than 2.5 µM; at CquiOBP5 (setting [7]), 7.2 µM; on CquiOBP1 [2] (setting [9]) it was 5.3 µM. Also, the “Int (fluorescence emission)” value worked out at 86 on CquiOBP2 (CquiOBP2), 52 at CquiOBP5 (CquiOBP5) and 48 on CquiOBP1 [2] (CquiOBP1). At CquiOBP2 (in vitro, NPN displacement), the “binding to CquiOBP2 (in words)” value is listed as “cannot displace NPN”. On CquiOBP5 (in vitro, NPN displacement), the “binding to CquiOBP5 (in words)” value is recorded as “bound”. For the same molecule, the “binding to CquiOBP1 (in words)” value at CquiOBP1 [2] (in vitro, NPN displacement) is listed as “bound”. Also, in test [3], the “EAG responses, knockdown vs wild type” value is “significant lower”.
For `CCCCCCCCC=O` [Nonanal, nonanal], the “pH of the midpoint transition” value on CquiOBP1 [1] is on record as 5.5. For the same molecule, the IC50 on CquiOBP2 (setting [4]) was more than 10 µM; on CquiOBP5 (setting [6]) it was 8.3 µM; on CquiOBP1 [2] (setting [8]) it was 10.5 µM. For the same molecule, the results for the Kd at CquiOBP2 (setting [5]), at CquiOBP5 (setting [7]) and at CquiOBP1 [2] (setting [9]) were more than 2.5 µM, 5.8 µM and 6.6 µM, respectively. Also, the “Int (fluorescence emission)” value is recorded as 87 at CquiOBP2 (CquiOBP2), 46.5 on CquiOBP5 (CquiOBP5) and 51.4 on CquiOBP1 [2] (CquiOBP1). In test [3], the “EAG responses, knockdown vs wild type” value is listed as “not significantly different”.
For `c1ccc2[nH]ccc2c1` [Indole, indole], in the test with AgamOBP1, the “binding to AgamOBP1” value was “selectively bind”. Further, the IC50 on CquiOBP2 (setting [4]), at CquiOBP5 (setting [6]) and on CquiOBP1 [2] (setting [8]) was more than 10 µM throughout. Moreover, the Kd is more than 2.5 µM on CquiOBP2 (setting [5]), more than 7 µM on CquiOBP5 (setting [7]) and more than 6.3 µM on CquiOBP1 [2] (setting [9]). The entries for the “Int (fluorescence emission)” value on CquiOBP2 (CquiOBP2), on CquiOBP5 (CquiOBP5) and at CquiOBP1 [2] (CquiOBP1) were 87, 80 and 86, respectively.
For `CCCCCCCCCC(C)=O` [2-undecanone], the “binding to AfunOBP1” value with AfunOBP1 is listed as “best ligand”.
